# Reference: patent US20250057963A1, “DISCOVERY OF PIPERLONGUMINE AS A NOVEL E3 LIGASE LIGAND” (University of Florida Research Foundation, Incorporated, priority 2021, published 2025)
# Entries after “also recorded” stand apart in the source; their conditions may differ.
# Legend:
# CDK10 = biological target: T1, CDK10 (Homo sapiens, UniProt Q15131); assay: CDK10 degradation in MOLT4 cells (TMT proteomics, immunoblot); assay type: cell-based
# T1 construct: endogenous in cells; host or cells: MOLT4
# Method: (§1) Cells were collected and lysed in RIPA lysis buffer (Cat. #BP-115DG, Boston Bio Products, Ashland, MA, USA) supplemented with protease and phosphatase inhibitor cocktails (Cat. #PPC1010, Sigma-Aldrich, St. Louis, MO, USA). Protein samples were made and immunoblotting was performed as described previously (Khan et al., 2019; Lv et al., 2021). Antibodies purchased from Cell Signaling Technologies (CST) and the dilutions are as follows: Biotin (Cat. No. 5571S, 1:1000), PARP (Cat. No. 9542S, 1:1000), c-Myc (Cat. No. 5605S, 1:1000), MCL1 (Cat. No. 5453S, 1:1000), and ALK (Cat. No. 3791S, 1:1000). KEAP1 antibody was purchased from Proteintech (Cat. No. 10503-2-AP, 1:1000). CDK9 antibody was purchased from Santa Cruz (Cat. No. sc-13130, 1:500). V5-tag antibody was purchased from Bethyl (Cat. No. A190-120P, 1:1000). j-actin antibody was purchased from MP Biomedicals (Cat. No. 8691001, 1:20 000).
# Sample Preparation and LC-MS/MS analysis. […]
# Data processing and analysis. Proteins were identified and MS3 reporter ions quantified using MaxQuant (version 2.0.3.0; Max Planck Institute) against the Homo sapiens UniprotKB database (March 2021) with a parent ion tolerance of 3 ppm, a fragment ion tolerance of 0.5 Da, and a reporter ion tolerance of 0.003 Da. […]
# PARP = PARP cleavage (apoptosis indicator) in MOLT4 cells; assay type: cell-based, Human; conditions: 6 h
# Method: as §1
# T1 sequence (Q15131 whole entry): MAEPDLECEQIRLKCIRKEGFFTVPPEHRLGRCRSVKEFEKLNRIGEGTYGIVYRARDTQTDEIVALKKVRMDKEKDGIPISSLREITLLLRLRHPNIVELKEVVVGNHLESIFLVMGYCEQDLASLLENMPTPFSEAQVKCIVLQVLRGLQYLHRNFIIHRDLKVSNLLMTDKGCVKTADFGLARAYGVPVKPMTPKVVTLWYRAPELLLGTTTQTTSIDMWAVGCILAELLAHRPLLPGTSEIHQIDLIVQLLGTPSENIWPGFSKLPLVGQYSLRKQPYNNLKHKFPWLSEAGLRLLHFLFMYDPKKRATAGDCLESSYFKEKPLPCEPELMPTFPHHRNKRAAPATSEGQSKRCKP
smiles,measurement,setting,value
"COc1cc(/C=C/C(=O)N2CCC=CC2=O)cc(OC)c1OCCN1CCN(C(=O)CN2CCC(C(=O)Nc3ncc(SCc4ncc(C(C)(C)C)o4)s3)CC2)CC1 [compound 955, (E)-N-(5-(((5-(tert-butyl)oxazol-2-yl)methyl)thio)thiazol-2-yl)-1-(2-(4-(2-(2,6-dimethoxy-4-(3-oxo-3-(6-oxo-3,6-dihydropyridin-1(2H)-yl)prop-1-en-1-yl)phenoxy)ethyl)piperazin-1-yl)-2-oxoethyl)piperidine-4-carboxamide]","dependence of CDK10 degradation (MG132, MLN4924 pre-treatment)",CDK10,UPS—and CRL-dependent manner; also recorded: proteasome- and CRL-dependent manner
same,CDK10 degradation,"CDK10; 0.1 μM 955, 1 μM SNS-032",significantly decreased CDK10; also recorded: potently degrade CDK10
same,induction of PARP cleavage / apoptotic cell death compared with SNS-032,PARP,more apoptotic cell death compared with SNS-032; also recorded: more potent in inducing PARP cleavage than SNS-032
